Measured values: the supplement of paper PMC11208160

Assay: recombinant barcode read abundance after kanamycin selection (control-corrected) (log10(CPM+1)); higher = more efficient recombination; sequences stand for … in AGTGCAGAGAAAATCGGCCAGTTTTCTCTGCCTGCAGTCCGCATGCCGT…AGATTTATGCAGCGGACTGCCTTTCTCCCAAAGTGATAAACCGGACAGTATCATGGACCGGTTTTCCCGGTAATCCGTATTTGCAAGGTTGGTTTCACT; site = the 11-nt target
How it was run: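 This pooled E. coli screen matched targets with IS621 bridge RNA target-binding loops. Plating was done in duplicate on chloramphenicol/ampicillin LB agar as a control and on chloramphenicol/ampicillin/kanamycin plus 0.1 mM IPTG. Recombination efficiency reflects barcode counts at recombinant junctions as counts per million, averaged and control-corrected. The figures are log10(CPM+1).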
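Note: IS621 recombinase and bridge RNA in Escherichia coli cells.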

| Sequence | recombinant barcode read abundance (log10) |
| --- | --- |
| GATGCGACTTGGGTTCTAACCTGTTGCCG (site GATGCGACTCG) | 0.968 |
| GATGCGACTTGGGTTCTAACCTGTTGCCG (site GATGTGACTAG) | 0.121 |
| GATGCTACTTGGGTTCTAACCTGTTGCCA (site GATCCTACTTG) | 0.124 |
| GATGCTACTTGGGTTCTAACCTGTTGCCA (site GATGCTACTTG) | 0.0236 |
| GATGCTTCTTGGGTTCTAACCTGTTGCTT (site AATGCTTCTAA) | 0.101 |
| GATGCTTCTTGGGTTCTAACCTGTTGCTT (site GATGCTTCTAA) | 0.223 |
| GATGGACCTTGGGTTCTAACCTGTTGCTA (site ATGTCTGCTAG) | 0.0118 |
| GATGGACCTTGGGTTCTAACCTGTTGCTA (site GATGGACCTTA) | 2.39 |
| GATGGCCCTTGGGTTCTAACCTGTTGCCT (site GATGGCCCTAG) | 1.23 |
| GATGGCCCTTGGGTTCTAACCTGTTGCCT (site GCTGGCCCTAG) | 0.103 |
| GATGGCCCTTGGGTTCTAACCTGTTGCCT (site GGTGGCCCTAG) | 0.113 |
| GATGGCCCTTGGGTTCTAACCTGTTGCCT (site GTTGGCCCTAG) | 0.127 |
| GATGGGCCTTGGGTTCTAACCTGTTGCGT (site GATGGGCCTAC) | 2.54 |
| GATGGGCCTTGGGTTCTAACCTGTTGCGT (site GCTGGGCCTTC) | 0.246 |
| GATGTACCTTGGGTTCTAACCTGTTGCCT (site AATGTACCTAG) | 0.984 |
| GATGTACCTTGGGTTCTAACCTGTTGCCT (site CATGTACCTAG) | 0.43 |
| GATGTACCTTGGGTTCTAACCTGTTGCCT (site GATGTACCTAG) | 1.7 |
| GATGTACCTTGGGTTCTAACCTGTTGCCT (site TATGTACCTAG) | 1.06 |

| Sequence | recombinant barcode read abundance (log10) |
| --- | --- |
| GATGTGACTTGGGTTCTAACCTGTTGCCT (site GATGCGACTCG) | 0.182 |
| GATGTGACTTGGGTTCTAACCTGTTGCCT (site GATGTGACTAG) | 2.3 |
| GATTAGACTTGGGTTCTAACCTGTTGCCT (site AATTAGACTAG) | 0.308 |
| GATTAGACTTGGGTTCTAACCTGTTGCCT (site CATTAGACTAG) | 0.0591 |
| GATTAGACTTGGGTTCTAACCTGTTGCCT (site GATTAGACTAG) | 1.09 |
| GATTAGACTTGGGTTCTAACCTGTTGCCT (site TATTAGACTAG) | 0.331 |
| GATTCACCTTGGGTTCTAACCTGTTGCCT (site AATTCACCTAG) | 0.543 |
| GATTCACCTTGGGTTCTAACCTGTTGCCT (site CATTCACCTAG) | 0.0425 |
| GATTCACCTTGGGTTCTAACCTGTTGCCT (site GATTCACCTAG) | 0.739 |
| GATTCACCTTGGGTTCTAACCTGTTGCCT (site TATTCACCTAG) | 0.274 |
| GATTTCTCTTGGGTTCTAACCTGTTGCCT (site AATTTCTCTAG) | 0.104 |
| GATTTCTCTTGGGTTCTAACCTGTTGCCT (site CATTTCTCTAG) | 0.0742 |
| GATTTCTCTTGGGTTCTAACCTGTTGCCT (site GATTTCTCTAG) | 0.228 |
| GATTTCTCTTGGGTTCTAACCTGTTGCCT (site TATTTCTCTAG) | 0.124 |
| GCAAGATCTTGGGTTCTAACCTGTTGCCT (site GCAAGATCTAG) | 1.36 |
| GCAAGATCTTGGGTTCTAACCTGTTGCCT (site GCAGGGTCTAG) | 0.0113 |
| GCAATGACTTGGGTTCTAACCTGTTGCCT (site GAAATGACTAG) | 0 |
| GCAATGACTTGGGTTCTAACCTGTTGCCT (site GCAATGACTAG) | 1.88 |
